Columns and labels:
[1] = antagonist activity against the stimulating effect of an anticholinergic substance (scopolamine); format: in vivo, mice SWISS; conditions: scopolamine subcutaneously injected, 1mg/kg, mice
Protocol: As the central anticholinergic stimulating agent the scopolamine was used subcutaneously injected to groups of 10 mice SWISS ([…]) at the dose of 1mg/kg.
At this dose the substance under question caused in all the animals a marked increase (80-100%) of the spontaneous motility, evaluated according to the above described method .

[2] = antagonist effect on the stimulating effect of scopolamine (motor activity), ESE series; format: in vivo; conditions: scopolamine at the dose of 1 mg/kg
Protocol: This is countered by the oral administration of 2.5 mg of ESE001, ESE002, ESE003, ESE004.

[3] = tested on: mouse; test: spontaneous motility (Dews' method modified according to Carminati); format: in vivo, mouse (SWISS strain)
Source text: The Dews' method was utilized, as modified according to Carminati (Arch. Int. Pharmacodyn. et Thér. 181, 68,1969).

[4] = tested on: acetylcholinesterase activity (AchE); test: in vivo anticholinesterase activity (blood and brain, Ellman colorimetric method); design: species or system Wistar male rats; conditions: rats, oral, 1.5 to 4 mg/kg; sacrificed after 20, 60 and 120 minutes
Protocol: The derivatives, under question and physostigmine suspended in 2% carboxymethylcellulose, were orally administered to groups of Wistar male rats (average weight about 250 g).
On the base of the obtained results in preliminary trials, the doses utilized for the comparison were comprised beween 0.2 and 0.4 mg/kg for physostigmine and between 1.5 and 4 mg/kg for the eseroline derivatives under question.
The groups of treated rats were sacrificed after 20, 60, and 120 minutes and the blood and the brain of each animal were immediately cooled to 0°C and maintained at this temperature during the successive treatments.
The acetylcholinesterase activity (AchE) was determined by using the Ellman et al's quick colorimetric method (Biochem. Pharmacol., 7, 88, 1961) and it was expressed as enzymatic inhibition percentage.

[5] = tested on: mouse; test: acute toxicity, oral LD50 in the mouse; conditions: oral, suspension in 2% carboxymethylcellulose, observation period 7 days
Source text: The mouse was used (Swiss strain having the average weight of the male mice being 26 g and 22 g that of the female mice: 5+5 animals per dose, observation period: 7days) The oral LD50 (suspension in 2% carboxymethylcellulose) were reported hereinbelow: Tab.2

[6] = effect on the succinylcholine curarization duration (corneal reflex); format: in vivo; conditions: i.v. administration of 0.6 mg/kg, rabbit; compared with physostigmine

Chain of acetylcholinesterase activity (AchE) (P37136 32-574 limits assumed): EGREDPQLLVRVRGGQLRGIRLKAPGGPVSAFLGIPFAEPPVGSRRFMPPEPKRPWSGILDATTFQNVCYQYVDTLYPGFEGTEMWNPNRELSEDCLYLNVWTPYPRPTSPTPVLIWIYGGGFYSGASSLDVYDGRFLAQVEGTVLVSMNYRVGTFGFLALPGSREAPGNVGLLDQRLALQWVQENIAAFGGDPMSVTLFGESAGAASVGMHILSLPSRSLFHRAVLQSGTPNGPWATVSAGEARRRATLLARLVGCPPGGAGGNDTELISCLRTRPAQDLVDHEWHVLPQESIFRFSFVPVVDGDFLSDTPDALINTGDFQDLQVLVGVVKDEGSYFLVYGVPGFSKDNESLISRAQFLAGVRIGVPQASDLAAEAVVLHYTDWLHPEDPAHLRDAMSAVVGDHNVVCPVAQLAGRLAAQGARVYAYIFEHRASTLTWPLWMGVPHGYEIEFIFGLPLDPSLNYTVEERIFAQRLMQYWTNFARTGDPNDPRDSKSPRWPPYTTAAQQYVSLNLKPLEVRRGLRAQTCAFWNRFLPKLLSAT

Compound	increase of the spontaneous motility [1]	increase in motor activity (stimulating effect) [2] [%]	reduction of spontaneous motility ([3]; oral, starting from minimal doses of 3.5-5 mg/kg, on average) [%]	minimal doses causing a marked reduction of spontaneous motility ([3]; orally administered) [mg/kg]	inhibitory activity of the acetylcholinesterase [4]	LD50 in the mouse [5]	anticholinesterase effect with respect to the succinylcholine curarizing action [6]
CN1[C@@H]2C[C@@H](OC(=O)[C@H](CO)c3ccccc3)C[C@H]1[C@@H]1O[C@@H]12 [scopolamine, reference compound]	80-100%	100	–	–	–	–	–
eseroline L-prolylpyrrolidinamide [MGT2]	–	–	~-39	3.5 to 5	evident dose dipendent and reversible inhibitory activity	342,2 ± 11,16 mg/kg	the same anticholinesterase effect
